Consider 6 compounds from US20080064730A1, “Azine Compounds for Combating Animal Pests” (BASF Aktiengesellschaft, priority 2004, published 2008).

Some results are limits rather than exact numbers.

The mortality is the percentage killed.

Assay type in all cases: in vivo
Assay [1] has as its system Green Peach Aphid (Myzus Persicae). The assay is described as follows: Green peach aphid test on dipped pepper plants. The following applies: 120 h, pepper plant leaves dipped, after 5 days, read-out: mortality in comparison with untreated controls. Here is the method:
• The soybean bean cyst nematode culture was maintained in a greenhouse and soybean eggs and J2 larvae were obtained for testing by dislodging soybean cysts from the roots with a sieve. The cysts were broken to release the eggs and the eggs were maintained in water. The eggs hatched after 5-7 days at 28° C. To microtiter plates containing about 150 μg of compound, 80:20 acetone was added to each well and the solution was mixed to obtain the desired compound concentration. The nematode solution was added to the plate. The plates were then sealed and placed in an incubator at 27° C. and 50% (+/−2%) relative humidity. […] II Activity Against Insects II.1 Cotton Aphid (Aphis Gossypii) • The active compounds were formulated in 50:50 acetone:water and 100 ppm Kinetics surfactant. • Cotton plants at the cotyledon stage (one plant per pot) were infested by placing a heavily infested leaf from the main colony on top of each cotyledon. The aphids were allowed to transfer to the host plant overnight, and the leaf used to transfer the aphids was removed. The cotyledons were dipped in the test solution and allowed to dry. […] II.2 Green Peach Aphid (Myzus Persicae) • The active compounds were formulated in 50:50 acetone:water and 100 ppm Kinetic® surfactant. • Pepper plants in the 2nd leaf-pair stage (variety ‘California Wonder’) were infested with approximately 40 laboratory-reared aphids by placing infested leaf sections on top of the test plants. The leaf sections were removed after 24 hr. The leaves of the intact plants were dipped into gradient solutions of the test compound and allowed to dry. Test plants were maintained under fluorescent light (24 hour photoperiod) at about 25° C. and 20-40% relative humidity. […] II.3 Bean Aphid (Aphis Fabae) • The active compounds were formulated in 50:50 acetone:water and 100 ppm Kinetics surfactant. • Nasturtium plants grown in Metro mix in the 1st leaf-pair stage (variety ‘Mixed Jewle’) were infested with approximately 2-30 laboratory-reared aphids by placing infested cut plants on top of the test plants. The cut plants were removed after 24 hr. […]

The subject of assay [2] is Cotton Aphid (Aphis Gossypii). Put plainly: Cotton aphid test on dipped cotton cotyledons. The following applies: 120 h, after 5 days, read-out: mortality in comparison with untreated controls. Here is the method:
(§1) • The soybean bean cyst nematode culture was maintained in a greenhouse and soybean eggs and J2 larvae were obtained for testing by dislodging soybean cysts from the roots with a sieve. The cysts were broken to release the eggs and the eggs were maintained in water. The eggs hatched after 5-7 days at 28° C. To microtiter plates containing about 150 μg of compound, 80:20 acetone was added to each well and the solution was mixed to obtain the desired compound concentration. The nematode solution was added to the plate. The plates were then sealed and placed in an incubator at 27° C. and 50% (+/−2%) relative humidity. […] II Activity Against Insects II.1 Cotton Aphid (Aphis Gossypii) • The active compounds were formulated in 50:50 acetone:water and 100 ppm Kinetics surfactant. • Cotton plants at the cotyledon stage (one plant per pot) were infested by placing a heavily infested leaf from the main colony on top of each cotyledon. The aphids were allowed to transfer to the host plant overnight, and the leaf used to transfer the aphids was removed. The cotyledons were dipped in the test solution and allowed to dry. […]

For assay [3], the system named is Root-Knot Nematode (Meloidogyne incognita). Put plainly: Root-knot nematode microtiter plate mortality test. The conditions noted are these: after 72 hours, J2 nematodes, immobility regarded as mortality, read-out: mortality compared to untreated controls. Here is the method:
• Test compounds were prepared and formulated into aqueous formulations using acetone. The formulations were tested using root knot nematode (2nd instar) and soybean cyst nematode (2nd instar) as target species. I.1 Test Procedures for Root-Knot Nematode (Meloidogyne incognita): • Tomato plants (var. Bonny Best) were grown in the greenhouse in plastic tubs (4 to 6 plants per tub). The plants and soil (a 50:50 mixture of sand and “New Egypt” sandy loam) were infested with M. incognita J2 (to establish the “in-house” colony, M. incognita J2 were initially acquired from Auburn University). The plants were kept pruned and were used on an “as needed” basis. The tomato plants were kept in the cylinder containing hydroponic solution and aerated until the nematodes were no longer present in the solution (usually about 60 days). The cultures were checked daily by eluting a small volume (approximately 20 ml) from the bottom of a funnel attached to the cylinder into a small crystallizing dish and observed using a binocular dissecting scope. […] These were counted by putting 25 μl of the nematode solution into a well of an unused well of an assay plate. […] After 72 hours, the population mortality was read, whereby immobility of nematodes was regarded as mortality.

For assay [4], the system named is Soybean Cyst Nematode (Heterodera Glycine). The assay is described as follows: Soybean cyst nematode microtiter plate mortality test. The following applies: after 72 hours, J2 larvae, immobility regarded as mortality, read-out: mortality compared to untreated controls. Here is the method: I.2 Test Procedures for Soybean Cyst Nematode (Heterodera Glycine):
as §1

For the compound `Cl/C(=N\N=Cc1cc2ccccc2o1)c1cccs1` [Example 1], in assay [1], the mortality at 300 ppm was above 75%.

For the compound `CS/C(=N\N=Cc1cc2ccccc2o1)c1cccs1` [Example 2], in assay [2], the mortality at 300 ppm is above 75%.

Regarding `CO/C(=N\N=Cc1cc2ccccc2o1)c1cccs1` [Example 4], the mortality at 100 ppm in assay [3] was above 95%.

With `C/C(=N\N=Cc1cc2ccccc2o1)c1cccs1` [Example 5], the mortality at 300 ppm in assay [1] is above 75%.

Regarding `Cl/C(=N\N=CC=Cc1ccccc1)c1cccs1` [Example 11], the mortality at 100 ppm in assay [4] was above 95%.

Consider `C/C(=N\N=CC=Cc1ccccc1)c1cccs1` [Example 12], for which, in assay [3], the mortality at 100 ppm was above 95%. For the same compound, the mortality at 300 ppm in assay [1] is above 75%.
